Laboratory results as given in patent publication US5519040A, “Substituted thiazole sulfonamides as antiglaucoma agents” (Allergan, priority 1994, dated 1996).

Tests used:
[1] = Cysteine reactivity probe assay (HPLC); set-up: unit not given here; conditions: cysteine in phosphate buffer pH 7.4, HPLC; unit not given
From the text: An additional measurement made on some compounds of the invention is the cysteine reactivity. This reactivity measurement gives an indication of the likelihood that a compound will react with cysteine residues in the eye, and so is a measure of the likelihood of development of sensitization in the eye to that compound. […] In general, substituents that are more highly electron withdrawing, such as sulfonyl or carbonyl moieties adjacent to the thiazole ring, increase cysteine reactivity.
2. Cysteine reactivity was measured by the following probe assay procedure. Three stock solutions of: A) the CAI compound to be tested in […] phosphate buffer; B) cysteine ([…]) in 50 mM phosphate buffer at pH 7.4; and C) phosphate buffer (50 mM) at pH 7.4, were prepared. Each solution was deoxygenated by bubbling with N2 for 10-15 min.
Reaction mixtures were prepared in triplicate by mixing equal volumes (1 mL) of two stock solutions as follows:
Hydrolytic or other chemical reactivity was detected by comparison of solutions I and II. Cysteine related reactions were detected by comparison of solutions II and III. All samples were assayed using HPLC under constant conditions and over a short period of time to minimize experimental variations in peak heights not related to CAI concentration differences. Each of the three solutions were assayed in sequence to give three sets of experimental values: Ia, IIa, IIIa, Ib, IIb, IIIb, Ic, IIc, IIIc and each set was compared separately. Mean and standard deviations of the three sets were recorded.

[2] = molecular target: T1, (Homo sapiens, UniProt P00918); test: Carbonic anhydrase activity, micromethod of Maren (time to lower pH of CO2-saturated carbonate/bicarbonate buffer, phenol red endpoint); assay type: biochemical; conditions: pure enzyme from human erythrocyte; 0°-4° C.; pH 9.9 to 6.8
T1 construct: pure CA11 enzyme from human erythrocyte; from tissue; host or cells: human erythrocytes (purified enzyme)
Method: 1. Carbonic anhydrase activity was assayed according to the micromethod of Maren (J. PharmacoI. Exptl. Therap., 130, 26-29, 1960). All solutions and reagents were maintained at 0°-4° C. The final assay mixture contained 16 mM phenol red, added enzyme and 62.5 mM sodium carbonate/bicarbonate. Its volume was kept constant at 0.8 mL. The time required for the added enzyme to lower the pH of CO2-saturated carbonate/bicarbonate buffer from pH 9.9 to 6.8 was measured using the color change of phenol red as endpoint. T1 is the time recorded for the reaction containing no enzyme. T2 is the time recorded for the reaction containing pure CA11 enzyme from human erythrocyte, or an unknown amount in a sample. Enzyme activities (unit) were calculated using the formula:
Unit/ug=(T1 -T2)(T2 *ug protein used in assay)
IC50 of a carbonic anhydrase inhibitor is the concentration that lowers the enzyme activity to half.

| SMILES | Cysteine reactivity [1] | IC50 [2] [nM] |
| --- | --- | --- |
| CCCCOc1ncc(S(N)(=O)=O)s1 [2-(1-Butoxy)-5-thiazole sulfonamide] | < 0.00005 | 16 |
| CCCCC#Cc1ncc(S(N)(=O)=O)s1 [2-(1-Hexynyl)-5-thiazole sulfonamide] | 0.001 | 7.7 |
| CCCCCC(O)c1ncc(S(N)(=O)=O)s1 (stereo not shown) [2-(1-Hydroxyhexyl)-5-thiazole sulfonamide] | – | 10 |
| NS(=O)(=O)c1cnc(C(=O)C2CC2)s1 [2-(1-Ketocyclopropyl)-5-thiazole sulfonamide] | < 0.000024 | 3.5 |
| COCOCC(=O)c1ncc(S(N)(=O)=O)s1 [2-(2-(methoxymethoxy)ethanoyl)-5-thiazole sulfonamide] | – | 10.3 |
| CN(C)CCCC(=O)c1ncc(S(N)(=O)=O)s1 [2-(4-(N,N-dimethyl)aminobutanoyl)-5-thiazole sulfonamide] | – | 26 |
| CCS(=O)(=O)c1ncc(S(N)(=O)=O)s1 [2-(Ethylsulfonyl)-5-thiazole sulfonamide, 2-Ethylsulfonyl-5-thiazole sulfonamide] | reactive | 6.7 |
| CCSc1ncc(S(N)(=O)=O)s1 [2-(Ethylthio)-5-thiazole sulfonamide, 2-Ethylthio-5-thiazole sulfonamide] | < 0.0000024 | 6.3 |
| CN(C)CCN(C)S(=O)(=O)c1ncc(S(N)(=O)=O)s1 [2-(N-Methyl-N-(dimethylamino)ethyl)sulfamyl-5-thiazole sulfonamide] | reactive | 14.5 |
| CC(C)(C)NS(=O)(=O)c1ncc(S(N)(=O)=O)s1 [2-(N-t-butylsulfamyl)-5-thiazole sulfonamide] | – | 5.3 |
| CCCCCC(=O)c1ncc(S(N)(=O)=O)s1 [2-Hexanoyl-5-thiazole sulfonamide, 2-(1-Hexanoyl)-5-thiazole sulfonamide] | 0.00007 | 3.5 |
| CCCCCCc1ncc(S(N)(=O)=O)s1 [2-Hexyl-5-thiazole sulfonamide, 2-(1-Hexyl)-5-thiazole sulfonamide] | – | 20.6 |
| NS(=O)(=O)c1cnc(-c2ccccc2)s1 [2-Phenyl-5-thiazole sulfonamide] | – | 20 |
| NS(=O)(=O)c1cnc([S+]([O-])c2ccccc2)s1 (stereo not shown) [2-Phenylsulfinyl-5-thiazole sulfonamide] | reactive | 12.7 |
| NS(=O)(=O)c1cnc(S(=O)(=O)c2ccccc2)s1 [2-Phenylsulfonyl-5-thiazole sulfonamide] | reactive | 5.5 |
| NS(=O)(=O)c1cnc(Sc2ccccc2)s1 [2-Phenylthio-5-thiazole sulfonamide, 2-Thiophenyl-5-thiazole sulfonamide] | N.R. | 5.5 |
| NS(=O)(=O)c1nc2c(s1)CCCC2 [2-Sulfamyl-4,5,6,7-tetrahydrobenzothiazole] | – | 15 |
| NS(=O)(=O)c1nccs1 [2-Thiazole sulfonamide] | N.R. | 61 |
| COc1ccc(-c2csc(S(N)(=O)=O)n2)cc1 [4-(4-Methoxyphenyl)-2-thiazole sulfonamide] | – | 33 |

| SMILES | Cysteine reactivity [1] | IC50 [2] [nM] |
| --- | --- | --- |
| CCOC(=O)c1csc(S(N)(=O)=O)n1 [4-Carboethoxy-2-thiazole sulfonamide, 4-carboethoxy-2-thiazole sulfonamide] | < 0.000005 | 77 |
| Cc1csc(S(N)(=O)=O)n1 [4-Methyl-2-thiazole sulfonamide] | 0.00005 | 120 |
| NS(=O)(=O)c1nc(-c2ccccc2)cs1 [4-Phenyl-2-thiazole sulfonamide] | – | 20 |
| CN1CCN(S(=O)(=O)c2ncc(S(N)(=O)=O)s2)CC1 [4-methyl-1-(2-(5-sulfamylthiazoyl)sulfonyl)piperazine] | reactive | 9.3 |
| CCCCC#Cc1cnc(S(N)(=O)=O)s1 [5-(1-Hexynyl)-2-thiazole sulfonamide] | 0.00019 | 5.6 |
| COC(=O)CCSc1cnc(S(N)(=O)=O)s1 [5-(2-Carbomethoxyethyl)thio-2-thiazole sulfonamide] | – | 9.1 |
| NS(=O)(=O)c1ncc(SCCO)s1 [5-(2-Hydroxyethyl)thio-2-thiazole sulfonamide] | – | 6.6 |
| CC(=O)OCCCC(=O)c1cnc(S(N)(=O)=O)s1 [5-(4-acetoxybutanoyl)-2-thiazole sulfonamide] | reactive | 8.4 |
| CCSc1cnc(S(N)(=O)=O)s1 [5-(Ethylthio)-2-thiazole sulfonamide] | 0.000024 | 4.2 |
| NS(=O)(=O)c1ncc(Sc2ccccc2)s1 [5-(Phenylthio)-2-thiazole sulfonamide] | 0.005 | 2.7 |
| NS(=O)(=O)c1ncc(C(=O)c2ccccc2)s1 [5-Benzoyl-2-thiazole sulfonamide] | reactive | 5 |
| NS(=O)(=O)c1ncc(Cc2ccccc2)s1 [5-Benzyl-2-thiazole sulfonamide] | – | 9.3 |
| NS(=O)(=O)c1ncc(Br)s1 [5-Bromo-2-thiazole sulfonamide] | – | 7.8 |
| NS(=O)(=O)c1ncc(Cl)s1 [5-Chloro-2-thiazole sulfonamide] | 0.00002 | 5.9 |
| COc1ccc(-c2nc(S(N)(=O)=O)sc2Cl)cc1 [5-Chloro-4-(4-methoxyphenyl)-2-thiazole sulfonamide] | – | 30 |
| CC[S+]([O-])c1cnc(S(N)(=O)=O)s1 (stereo not shown) [5-Ethylsufinyl-2-thiazole sulfonamide, 5-Ethylsulfinyl-2-thiazole sulfonamide] | reactive | 11.4 |
| Cc1sc(S(N)(=O)=O)nc1-c1ccccc1 [5-Methyl-4-phenyl-2-thiazole sulfonamide] | N.R. | 84 |
| NS(=O)(=O)c1ncc(-c2ccccc2)s1 [5-Phenyl-2-thiazole sulfonamide] | – | 6 |
| NS(=O)(=O)c1ncc(S(=O)(=O)c2ccccc2)s1 [5-Phenylsulfonyl-2-thiazole sulfonamide, 5-(Phenylsulfonyl)-2-thiazole sulfonamide] | reactive | 6 |
